Patent US9561231B2 (AbbVie Inc., priority 2012, dated 2017)

Columns and labels:
[1] = target: T1, second (BD2: amino acids E352-E168) bromodomain of BRD4 (Homo sapiens, UniProt O60885); experiment: TR-FRET bromodomain binding assay, BRD4 BD2; conditions: TR-FRET assay protocol (A-G, compound concentration range); Ki calculated from IC50, probe Kd and probe concentration; read-out: TR-FRET Binding Ki: BRD4 (BDII_E352-M457)
T1 construct: protocol
How it was run: (§1)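 Compounds were serially diluted in DMSO, diluted into pH 6.0 phosphate buffer with NaCl, EDTA, Triton X-100 and DTT, then combined with His-tagged bromodomain and an Alexa647-labeled BET-inhibitor probe. TR-FRET was read, percent inhibition fitted to give IC50, and Ki derived using probe Kd.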

[2] = system: breast cancer cell line MX-1; experiment: MX-1 cell line proliferation assay (3-day); type: cell-based; conditions: Homo sapiens, MX1; MX-1 cells, 72 h incubation, Cell Titer Glo; read-out: Cellular proliferation: EC50
How it was run: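 EC50 derived by sigmoidal fitting of Cell Titer Glo signal relative to DMSO controls. Compound, 3 μM down to 0.0001 μM final in 3-fold steps, was added to adhered MX-1 cells (5000/well, RPMI + 10% FBS) for a 3-day incubation at 37° C.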

[3] = target: T2, first (BD1: amino acids K57-E168) bromodomain of BRD4 (Homo sapiens, UniProt O60885); experiment: TR-FRET bromodomain binding assay, BRD4 BD1; conditions: TR-FRET assay protocol (A-G, compound concentration range); Ki calculated from IC50, probe Kd and probe concentration; read-out: TR-FRET Binding Ki: BRD4 (BDI_K57-E168)
T2 construct: His-tagged first (BD1: amino acids K57-E168)
How it was run: as §1

Compound | Ki [1] [nM] | EC50 [2] [nM] | Ki [3] [nM]
CCS(=O)(=O)Nc1ccc(Oc2ccc(C(N)=O)cc2)c(-c2cn(C)c(=O)cc2OCC(F)(F)F)c1 [Example 294, 4-{4-[(ethylsulfonyl)amino]-2-[1-methyl-6-oxo-4-(2,2,2-trifluoroethoxy)-1,6-dihydropyridin-3-yl]phenoxy}benzamide] | 8.3 | > 3000 | 27.8
CCOc1cc(=O)n(C)cc1-c1cc(NC(=O)c2ccc(COc3ccccc3)cc2)ccc1Oc1ccc(F)cc1F [Example 297, N-[4-(2,4-difluorophenoxy)-3-(4-ethoxy-1-methyl-6-oxo-1,6-dihydropyridin-3-yl)phenyl]-4-(phenoxymethyl)benzamide] | 256 | 2420 | > 238
CCOc1cc(=O)n(C)cc1-c1cc(NC(=O)CCC(C)C)ccc1Oc1ccc(F)cc1F [Example 298, N-[4-(2,4-difluorophenoxy)-3-(4-ethoxy-1-methyl-6-oxo-1,6-dihydropyridin-3-yl)phenyl]-4-methylpentanamide] | 54.5 | 637 | 143
CCOc1cc(=O)n(C)cc1-c1cc(NC(=O)c2ccc(NC(C)=O)cc2)ccc1Oc1ccc(F)cc1F [Example 300, 4-(acetylamino)-N-[4-(2,4-difluorophenoxy)-3-(4-ethoxy-1-methyl-6-oxo-1,6-dihydropyridin-3-yl)phenyl]benzamide] | 24.6 | 291 | 25.6
C=CC#Cc1ccccc1Oc1ccc(S(=O)(=O)CC)cc1-c1cn(C)c(=O)cc1O [Example 313, 5-{2-[2-(but-3-en-1-yn-1-yl)phenoxy]-5-(ethylsulfonyl)phenyl}-4-hydroxy-1-methylpyridin-2(1H)-one] | 55.2 | 1330 | 754
CCS(=O)(=O)Nc1ccc(Oc2ccc(F)cc2F)c(-c2cn(C)c(=O)cc2OC2CCN(C(=O)OC(C)(C)C)CC2)c1 [Example 319, tert-butyl 4-[(5-{2-(2,4-difluorophenoxy)-5-[(ethylsulfonyl)amino]phenyl}-1-methyl-2-oxo-1,2-dihydropyridin-4-yl)oxy]piperidine-1-carboxylate] | 104 | 322 | 316
CCS(=O)(=O)Nc1ccc(Oc2ccc(F)cc2F)c(-c2cn(C)c(=O)cc2OC2CC3(C2)CN(C(=O)OC(C)(C)C)C3)c1 [Example 325, tert-butyl 6-[(5-{2-(2,4-difluorophenoxy)-5-[(ethylsulfonyl)amino]phenyl}-1-methyl-2-oxo-1,2-dihydropyridin-4-yl)oxy]-2-azaspiro[3.3]heptane-2-carboxylate] | 21.4 | 101 | 30.6
CCS(=O)(=O)Nc1ccc(Oc2ccc(F)cc2F)c(-c2cn(C)c(=O)cc2-c2ccc(N3CCN(C)CC3)cc2)c1 [Example 330, N-[4-(2,4-difluorophenoxy)-3-{1-methyl-4-[4-(4-methylpiperazin-1-yl)phenyl]-6-oxo-1,6-dihydropyridin-3-yl}phenyl]ethanesulfonamide] | 0.584 | 49.7 | 1.96
CCS(=O)(=O)Nc1ccc(Oc2ccc(OC3COC3)cc2F)c(-c2cn(C)c(=O)cc2OC2COC2)c1 [Example 336, N-{4-[2-fluoro-4-(oxetan-3-yloxy)phenoxy]-3-[1-methyl-4-(oxetan-3-yloxy)-6-oxo-1,6-dihydropyridin-3-yl]phenyl}ethanesulfonamide] | 1.67 | 165 | 21.4
CCOc1cc(=O)n(C)cc1-c1cc(S(C)(=O)=O)ccc1NCC1CC1 [Example 340, 5-{2-[(cyclopropylmethyl)amino]-5-(methylsulfonyl)phenyl}-4-ethoxy-1-methylpyridin-2(1H)-one] | 251 | 384 | 225
CCS(=O)(=O)Nc1ccc(Oc2ccc(F)cc2F)c(-c2cn(C)c(=O)cc2-c2cnn(C)c2)c1 [Example 342, N-{4-(2,4-difluorophenoxy)-3-[1-methyl-4-(1-methyl-1H-pyrazol-4-yl)-6-oxo-1,6-dihydropyridin-3-yl]phenyl}ethanesulfonamide] | 0.609 | 91.2 | 2.21
CCOc1cc(=O)n(C)cc1-c1cc(NS(=O)(=O)c2cccc3ccccc23)ccc1Oc1ccc(F)cc1F [Example 343, N-[4-(2,4-difluorophenoxy)-3-(4-ethoxy-1-methyl-6-oxo-1,6-dihydropyridin-3-yl)phenyl]naphthalene-1-sulfonamide] | 12.7 | 504 | 69.8
CCOc1cc(=O)n(C)cc1-c1cc(NS(=O)(=O)c2ccccc2)ccc1Oc1ccc(F)cc1F [Example 344, N-[4-(2,4-difluorophenoxy)-3-(4-ethoxy-1-methyl-6-oxo-1,6-dihydropyridin-3-yl)phenyl]benzenesulfonamide] | 5.07 | 271 | 23.1

Next, values leading:

Ki [1] [nM] | EC50 [2] [nM] | Ki [3] [nM] | Compound
6.27 | 112 | 16.2 | CCS(=O)(=O)Nc1ccc(Oc2ccc(F)cc2F)c(-c2cn(C)c(=O)cc2OCC2CCOC2)c1 (stereo not drawn) [Example 291, N-{4-(2,4-difluorophenoxy)-3-[1-methyl-6-oxo-4-(tetrahydrofuran-3-ylmethoxy)-1,6-dihydropyridin-3-yl]phenyl}ethanesulfonamide]
0.39 | 55.6 | 2.51 | CCS(=O)(=O)Nc1ccc(Oc2ccc(F)cc2F)c(-c2cn(C)c(=O)cc2OCc2ccc(CN3CCOCC3)cc2)c1 [Example 315, N-[4-(2,4-difluorophenoxy)-3-(1-methyl-4-{[4-(morpholin-4-ylmethyl)benzyl]oxy}-6-oxo-1,6-dihydropyridin-3-yl)phenyl]ethanesulfonamide]
0.809 | 24.7 | 3.9 | CCS(=O)(=O)Nc1ccc(Oc2ccc(F)cc2F)c(-c2cn(C)c(=O)cc2OC2COC2)c1 [Example 316, N-{4-(2,4-difluorophenoxy)-3-[1-methyl-4-(oxetan-3-yloxy)-6-oxo-1,6-dihydropyridin-3-yl]phenyl}ethanesulfonamide]
15.3 | 42.7 | 156 | CCS(=O)(=O)c1ccc(Oc2ccc(F)cc2F)c(-c2cn(C)c(=O)cc2OC2COC2)c1 [Example 318, 5-[2-(2,4-difluorophenoxy)-5-(ethylsulfonyl)phenyl]-1-methyl-4-(oxetan-3-yloxy)pyridin-2(1H)-one]
9.15 | 423 | 50 | CCS(=O)(=O)Nc1ccc(Oc2ccc(F)cc2F)c(-c2cn(C)c(=O)cc2O[C@H]2CC[C@H](N(C)C)CC2)c1 [Example 321, N-[4-(2,4-difluorophenoxy)-3-(4-{[trans-4-(dimethylamino)cyclohexyl]oxy}-1-methyl-6-oxo-1,6-dihydropyridin-3-yl)phenyl]ethanesulfonamide]
90.9 | > 3000 | 437 | CCS(=O)(=O)Nc1ccc(Oc2ccc(F)cc2F)c(-c2cn(C)c(=O)cc2OC2CCNCC2)c1 [Example 322, N-{4-(2,4-difluorophenoxy)-3-[1-methyl-6-oxo-4-(piperidin-4-yloxy)-1,6-dihydropyridin-3-yl]phenyl}ethanesulfonamide]
101 | 1140 | 150 | CCS(=O)(=O)Nc1ccc(Oc2ccc(F)cc2F)c(-c2cn(C)c(=O)cc2OCC2CCN(C)C2)c1 (stereo not drawn) [Example 323, N-[4-(2,4-difluorophenoxy)-3-{1-methyl-4-[(1-methylpyrrolidin-3-yl)methoxy]-6-oxo-1,6-dihydropyridin-3-yl]phenyl}ethanesulfonamide]
18.1 | 436 | 45 | CCS(=O)(=O)Nc1ccc(Oc2ccc(F)cc2F)c(-c2cn(C)c(=O)cc2OCC2CCN(C(=O)OC(C)(C)C)CC2)c1 [Example 324, tert-butyl 4-{[(5-{2-(2,4-difluorophenoxy)-5-[(ethylsulfonyl)amino]phenyl}-1-methyl-2-oxo-1,2-dihydropyridin-4-yl)oxy]methyl}piperidine-1-carboxylate]
17.5 | 2980 | 2.61 | CCS(=O)(=O)Nc1ccc(Oc2ccc(F)cc2F)c(-c2cn(C)c(=O)cc2OC2CC3(CNC3)C2)c1 [Example 326, N-{3-[4-(2-azaspiro[3.3]hept-6-yloxy)-1-methyl-6-oxo-1,6-dihydropyridin-3-yl]-4-(2,4-difluorophenoxy)phenyl}ethanesulfonamide]
14.6 | 72.7 | 7.1 | CCN(CC)CC#CCOc1cc(=O)n(C)cc1-c1cc(NS(=O)(=O)CC)ccc1Oc1ccc(F)cc1F [Example 328, N-[3-(4-{[4-(diethylamino)but-2-yn-1-yl]oxy}-1-methyl-6-oxo-1,6-dihydropyridin-3-yl)-4-(2,4-difluorophenoxy)phenyl]ethanesulfonamide]
1.71 | 22.7 | 2.98 | C/C=C/c1cc(=O)n(C)cc1-c1cc(NS(=O)(=O)CC)ccc1Oc1ccc(F)cc1F [Example 329, N-[4-(2,4-difluorophenoxy)-3-{1-methyl-6-oxo-4-[(1E)-prop-1-en-1-yl]-1,6-dihydropyridin-3-yl]phenyl}ethanesulfonamide]
